Laboratory results published in patent publication US20220040129A1, “TREATMENT OF HYPERAMMONEMIA IN PATIENTS WITH RENAL INSUFFICIENCY” (RECORDATI S.p.A., priority 2019, published 2022).
Like-named read-outs stand apart in the source and are kept apart here.

What was measured:
plasma NH3 = test: Rate of reduction of plasma NH3 over 36 hours, population with baseline NH3 over 100/150 micromol/L; assay type: in vivo, human
From the text: The two populations analyzed included: 1) Population with baseline plasma NH3 levels over 100 micromol/L in non-neonate or 150 micromol/L in neonate; 2) Propensity Matching Score (PMS) Population. […] These rates of decrease were confirmed to be statistically significant.

CYP2C9 = CYP2C9 (Homo sapiens, UniProt P11712); test: In vitro CYP inhibition; assay type: in vitro ADME
CYP2C9, sequence (P11712 whole entry): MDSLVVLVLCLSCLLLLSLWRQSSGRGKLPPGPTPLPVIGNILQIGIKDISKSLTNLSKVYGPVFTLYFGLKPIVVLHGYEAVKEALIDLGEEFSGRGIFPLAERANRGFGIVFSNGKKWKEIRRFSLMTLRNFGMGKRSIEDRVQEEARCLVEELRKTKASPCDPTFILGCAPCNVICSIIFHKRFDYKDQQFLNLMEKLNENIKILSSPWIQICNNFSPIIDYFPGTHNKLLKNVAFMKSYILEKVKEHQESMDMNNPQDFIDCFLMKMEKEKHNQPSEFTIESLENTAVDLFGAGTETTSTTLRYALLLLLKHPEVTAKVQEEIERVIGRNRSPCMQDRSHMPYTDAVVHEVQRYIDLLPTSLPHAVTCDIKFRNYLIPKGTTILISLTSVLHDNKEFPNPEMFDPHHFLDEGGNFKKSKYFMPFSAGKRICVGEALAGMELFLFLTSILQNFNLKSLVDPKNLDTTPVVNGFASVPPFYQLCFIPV

CYP2C19 = CYP2C19 (Homo sapiens, UniProt P33261); test: In vitro CYP inhibition; assay type: in vitro ADME
CYP2C19, sequence (P33261 whole entry, the tested form may be a part): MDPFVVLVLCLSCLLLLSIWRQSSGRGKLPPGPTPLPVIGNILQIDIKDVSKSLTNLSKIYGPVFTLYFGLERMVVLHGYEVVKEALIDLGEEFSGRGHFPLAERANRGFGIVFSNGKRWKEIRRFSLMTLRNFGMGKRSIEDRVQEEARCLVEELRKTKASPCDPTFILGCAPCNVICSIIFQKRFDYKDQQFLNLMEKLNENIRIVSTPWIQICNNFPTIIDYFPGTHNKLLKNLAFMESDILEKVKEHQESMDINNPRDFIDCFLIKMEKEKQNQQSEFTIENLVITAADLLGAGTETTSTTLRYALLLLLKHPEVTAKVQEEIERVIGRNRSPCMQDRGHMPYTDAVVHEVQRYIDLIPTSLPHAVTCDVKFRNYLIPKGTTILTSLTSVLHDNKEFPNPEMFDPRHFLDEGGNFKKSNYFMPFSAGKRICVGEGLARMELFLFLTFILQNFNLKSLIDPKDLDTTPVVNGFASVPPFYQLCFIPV

[1] = CARIV-A-001 Part B: cross-over IV infusion over 2 hours vs oral tablet 100 mg/kg in healthy subjects; assay type: in vivo, human; set-up: CL, Max / CL, Min: unit not given here; conditions: for AUCinf, Max / AUCinf, Min / aucL, Max / aucL, Min: in ng·h/mL; for AUC(0-inf) / clearance / Cmax / half-life / CL/F / bioavailability / AUC(0-t) / AUC: plasma; for AUC: read-out: aucL, Median
Procedure: The levels of CGA in plasma and urine were analysed using a fully validated method, which included LC-MS/MS analysis. The PK data were analysed based on a non-compartmental model. A model-based approach was implemented for the characterization of the PK properties of the IV formulation in order to estimate the level of PK exposure after different doses administered with different duration of infusion. The model outcomes provided rationales for supporting decision-making through the dose escalation process. The PK parameters were determined using SAS (version 9.3), and modelling of the PK data was performed using NONMEM (version 7.3, ICON Solutions). PART A: Mono-Centre, Randomized, Successive Groups, Double-Blind, Placebo-Controlled Study in Healthy Male and Female Subjects
Part B was a randomized, double-blind, cross-over, two-sequence study. It was conducted in 12 healthy male and female subjects.
In two treatment periods, separated by a washout of at least two weeks, subjects received a single administration of the study medication in fasting conditions, either as an IV loading dose infusion of Rec0/0491 over 2 hours (started with 6 mg/kg/h then reduced to 4.0 mg/kg/h), or an oral tablet administration of Carbaglu® (100 mg/kg).
Blood samples for PK measurements were collected at 19 timepoints for the IV administration and 17 timepoints for the oral administration. This included a sample prior to intake of the study medication and the period ranging from 20 minutes to 72 hours following the initiation of the IV infusion, and the period ranging from 30 minutes to 72 hours following oral intake. Urine was also collected for PK measurements, at the following intervals relative to the time of administration of the study medication: 0-6, 6-12, 12-24, 24-36 and 36-48 hours.
The PK analysis of Carbaglu was conducted on all subjects showing quantifiable plasma levels using standard non-compartmental approach.

[2] = Nonclinical safety study in rats: exposure; conditions: rat, in vivo
[3] = both sexes, human, oral, OR, 100 mg/kg, N 12
[4] = both sexes, human, IV, 8 mg/kg, N 10
[5] = both sexes, human, IV, 12 mg/kg, N 2
[6] = dose normalized section, Reference (IV data), in h
[7] = dose normalized section, Test (oral data), in h
[8] = dose normalized, Reference (IV data)
[9] = dose normalized, Test (oral data)

NC(=O)N[C@@H](CCC(=O)O)C(=O)O [carglumic acid, N-carbamoyl-L-glutamic acid]
Median time to achieve 50% reduction of plasma NH3 (plasma NH3; baseline plasma NH3 over 100 micromol/L in non-neonate or 150 micromol/L in neonate): 18 hours post dose | Speed of plasma NH3 reduction versus NH3 Scav alone group (plasma NH3; first 36 hours after treatment initiation, the two populations analyzed): statistically significantly faster | Inhibition of CYP2C9 (CYP2C9): not an inhibitor | Inhibition of CYP2C19 (CYP2C19): not an inhibitor | Absolute bioavailability F of the oral vs IV formulation, GeoMean ([1]; 12 subjects): 9.57% | Equivalence of exposure, oral tablet 100 mg/kg vs IV infusion over 2 hours ([1]; 90% confidence limits vs reference limits of 0.8 and 1.25): non-equivalent level of exposure | CL, Max ([1]; IV, 8 mg/kg, N 10): 0.472 | CL, Min ([1]; IV, 8 mg/kg, N 10): 0.225 | Cmax, Max ([1]; IV, 8 mg/kg, N 10): 11700 ng/mL | Cmax, Min ([1]; IV, 8 mg/kg, N 10): 5400 ng/mL | HL (Half-life), Max ([1]; IV, 8 mg/kg, N 10, in h): 52.95 | HL (Half-life), Min ([1]; IV, 8 mg/kg, N 10, in h): 22.85 | AUCinf, Max ([1]; IV, 8 mg/kg, N 10): 35564.90 | AUCinf, Min ([1]; IV, 8 mg/kg, N 10): 16949.96 | aucL, Max ([1]; IV, 8 mg/kg, N 10): 34579.31 | aucL, Min ([1]; IV, 8 mg/kg, N 10): 15713.03 | CL, Max ([1]; IV, 12 mg/kg, N 2): 0.267 | CL, Min ([1]; IV, 12 mg/kg, N 2): 0.192 | Cmax, Max ([1]; IV, 12 mg/kg, N 2): 23500 ng/mL | Cmax, Min ([1]; IV, 12 mg/kg, N 2): 19400 ng/mL | HL (Half-life), Max ([1]; IV, 12 mg/kg, N 2, in h): 42.59 | HL (Half-life), Min ([1]; IV, 12 mg/kg, N 2, in h): 27.23 | AUCinf, Max ([1]; IV, 12 mg/kg, N 2): 62628.03 | AUCinf, Min ([1]; IV, 12 mg/kg, N 2): 45001.41 | aucL, Max ([1]; IV, 12 mg/kg, N 2): 61017.40 | aucL, Min ([1]; IV, 12 mg/kg, N 2): 43281.03 | Cmax, Max ([1]; OR, 100 mg/kg, N 12): 5620 ng/mL | Cmax, Min ([1]; OR, 100 mg/kg, N 12): 1950 ng/mL | HL (Half-life), Max ([1]; OR, 100 mg/kg, N 12, in h): 35.31 | HL (Half-life), Min ([1]; OR, 100 mg/kg, N 12, in h): 17.56 | AUCinf, Max ([1]; OR, 100 mg/kg, N 12): 45696.37 | AUCinf, Min ([1]; OR, 100 mg/kg, N 12): 21852.27 | aucL, Max ([1]; OR, 100 mg/kg, N 12): 44250.17 | aucL, Min ([1]; OR, 100 mg/kg, N 12): 20030.59 | Percent of dose excreted in urine ([1]; after IV administration): 82% | Percent of dose excreted in urine ([1]; after oral administration): 7.5% | CL renal ([1]; both sexes, human, plasma and urine, after IV administration, read-out: Renal clearance (converted)): ~5 mL/min/kg | AUC(0-inf) ([1]; both sexes, human, iv, 8 mg/kg, IV, 8 mg/kg, N 10, read-out: AUCinf, Mean): 24500 ng·h/mL | AUC(0-inf) ([1]; both sexes, human, iv, 8 mg/kg, IV, 8 mg/kg, N 10, read-out: AUCinf, Median): 23700 ng·h/mL | clearance ([1]; both sexes, human, iv, 8 mg/kg, IV, 8 mg/kg, N 10, read-out: CL, Mean (converted)): 5.65 mL/min/kg | clearance ([1]; both sexes, human, iv, 8 mg/kg, IV, 8 mg/kg, N 10, read-out: CL, Median (converted)): 5.63 mL/min/kg | Cmax ([1]; both sexes, human, iv, 8 mg/kg, IV, 8 mg/kg, N 10, read-out: Cmax, Mean): 8610 ng/mL | Cmax ([1]; both sexes, human, iv, 8 mg/kg, IV, 8 mg/kg, N 10, read-out: Cmax, Median): 8760 ng/mL | half-life ([1]; both sexes, human, iv, 8 mg/kg, IV, 8 mg/kg, N 10, read-out: HL (Half-life), Mean (converted)): 30.6 h | half-life ([1]; both sexes, human, iv, 8 mg/kg, IV, 8 mg/kg, N 10, read-out: HL (Half-life), Median (converted)): 28.8 h | AUC(0-inf) ([1]; both sexes, human, iv, 12 mg/kg, IV, 12 mg/kg, N 2, read-out: AUCinf, Mean): 53800 ng·h/mL | AUC(0-inf) ([1]; both sexes, human, iv, 12 mg/kg, IV, 12 mg/kg, N 2, read-out: AUCinf, Median): 53800 ng·h/mL | clearance ([1]; both sexes, human, iv, 12 mg/kg, IV, 12 mg/kg, N 2, read-out: CL, Mean (converted)): 3.82 mL/min/kg | clearance ([1]; both sexes, human, iv, 12 mg/kg, IV, 12 mg/kg, N 2, read-out: CL, Median (converted)): 3.82 mL/min/kg | Cmax ([1]; both sexes, human, iv, 12 mg/kg, IV, 12 mg/kg, N 2, read-out: Cmax, Mean): 21400 ng/mL | Cmax ([1]; both sexes, human, iv, 12 mg/kg, IV, 12 mg/kg, N 2, read-out: Cmax, Median): 21400 ng/mL | half-life ([1]; both sexes, human, iv, 12 mg/kg, IV, 12 mg/kg, N 2, read-out: HL (Half-life), Mean (converted)): 34.9 h | half-life ([1]; both sexes, human, iv, 12 mg/kg, IV, 12 mg/kg, N 2, read-out: HL (Half-life), Median (converted)): 34.9 h | clearance ([1]; both sexes, human, iv, after IV administration, read-out: Total clearance (converted)): 5.17 mL/min/kg | AUC(0-inf) ([1]; both sexes, human, oral, 100 mg/kg, OR, 100 mg/kg, N 12, read-out: AUCinf, Mean): 31400 ng·h/mL | AUC(0-inf) ([1]; both sexes, human, oral, 100 mg/kg, OR, 100 mg/kg, N 12, read-out: AUCinf, Median): 30200 ng·h/mL | CL/F ([1]; both sexes, human, oral, 100 mg/kg, OR, 100 mg/kg, N 12, read-out: CL/F, Mean (converted)): 55.6 mL/min/kg | CL/F ([1]; both sexes, human, oral, 100 mg/kg, OR, 100 mg/kg, N 12, read-out: CL/F, Median (converted)): 55.2 mL/min/kg | Cmax ([1]; both sexes, human, oral, 100 mg/kg, OR, 100 mg/kg, N 12, read-out: Cmax, Mean): 3280 ng/mL | Cmax ([1]; both sexes, human, oral, 100 mg/kg, OR, 100 mg/kg, N 12, read-out: Cmax, Median): 2940 ng/mL | half-life ([1]; both sexes, human, oral, 100 mg/kg, OR, 100 mg/kg, N 12, read-out: HL (Half-life), Mean (converted)): 24.6 h | half-life ([1]; both sexes, human, oral, 100 mg/kg, OR, 100 mg/kg, N 12, read-out: HL (Half-life), Median (converted)): 23.7 h | bioavailability ([1]; both sexes, human, oral, 100 mg/kg, 12 subjects, read-out: Absolute bioavailability, 90% confidence intervals): 8.3 to 11% | AUC(0-t) [1, 3]: 29800 ng·h/mL | AUC [1, 3]: 29100 ng·h/mL | bioavailability ([1]; both sexes, human, po, 100 mg/kg, read-out: Oral bioavailability): ~10% | AUC(0-t) [1, 4]: 22900 ng·h/mL | AUC [1, 4]: 22000 ng·h/mL | AUC(0-t) [1, 5]: 52100 ng·h/mL | AUC [1, 5]: 52100 ng·h/mL | refHalf_life, Max [1, 6]: 52.95 | refHalf_life, Mean [1, 6]: 31.351 | refHalf_life, Median [1, 6]: 28.81 | refHalf_life, Min [1, 6]: 22.85 | testHalf life, Mean ([1]; dose normalized section, Test (oral data)): 24.6 h | testHalf_life, Max [1, 7]: 35.31 | testHalf_life, Median [1, 7]: 23.71 | testHalf_life, Min [1, 7]: 17.56 | refAUCinf, Max [1, 8]: 5219 | refAUCinf, Mean [1, 8]: 3299.58 | refAUCinf, Median [1, 8]: 3162.4 | refAUCinf, Min [1, 8]: 2118.74 | refAUClast, Max [1, 8]: 5084.78 | refAUClast, Mean [1, 8]: 3105.22 | refAUClast, Median [1, 8]: 2840.05 | refAUClast, Min [1, 8]: 1964.13 | refCL, Max [1, 8]: 0.059 | refCL, Mean [1, 8]: 0.038 | refCL, Median [1, 8]: 0.04 | refCL, Min [1, 8]: 0.016 | refCmax, Max [1, 8]: 1958.33 | refCmax, Mean [1, 8]: 1195.1 | refCmax, Median [1, 8]: 1148.13 | refCmax, Min [1, 8]: 675 | testAUCinf, Max [1, 9]: 456.96 | testAUCinf, Mean [1, 9]: 314.25 | testAUCinf, Min [1, 9]: 218.52 | testAUClast, Max [1, 9]: 442.5 | testAUClast, Mean [1, 9]: 298.07 | testAUClast, Min [1, 9]: 200.31 | testCL, Max [1, 9]: 0.046 | testCL, Mean [1, 9]: 0.033 | testCL, Min [1, 9]: 0.022 | testCmax, Max [1, 9]: 56.2 | testCmax, Mean [1, 9]: 32.84 | testCmax, Min [1, 9]: 19.5 | Absolute bioavailability F of the oral vs IV formulation, Mean ([1]; from dose normalized AUCinf, 12 subjects): 9.87% | Total clearance after oral administration corrected by the bioavailability value of F=9.87% ([1]; oral): 5.83 mL/min/kg | AUC ([2]; read-out: AUC, exposure previously observed): 258000 ng·h/mL | Cmax ([2]; read-out: Cmax, exposure previously observed): 52000 ng/mL
